Source: patent publication US20070032456A1, “Modulation of cell death” (priority 2003, published 2007)

Columns and labels:
[1] = tested on: IL-6; assay: Level of expression of IL-6 in H9C2 cells treated with PLP under H2O2 oxidative stress; format: cell-based, rat
Description: Subcultured H9C2 cells (rat myocardium) (ATCC No. CRL-1446, from the American Type Culture Collection in Manassas, Va.) were plated into six well plates at a concentration of about 10^6 cells per well and allowed to grow overnight. The wells were then treated with concentrations of pyridoxal-5′-phosphate at concentrations of about 0, 50, 100, 250, 500, and 1000 nM in the medium. The cells were incubated for about 40 minutes.
An oxidative stressor, 1 mM H2O2 (Sigma, St. Louis, Mo.), was then added to each well. Supernantant samples were collected from the wells before addition of the 1 mM H2O2, and after 2, 4, 6, and 12 hours of exposure. The supernatant samples were stored at −20° C. until analyzed. The levels of IL-6 were then analyzed in each of the samples using test kits from Biosource Intl. (Camarillo, Calif.).

[2] = in water, alcohol, and ether; cited from earlier work
[3] = tested on: activated p38; assay: Level of activated p38 in cells treated with PLP; format: cell-based, rat; details: data not shown

Cc1ncc(COP(=O)(O)O)c(C=O)c1O [pyridoxal-5′-phosphate, 3-hydroxy-2-methyl-5-[(phosphonooxy)methyl]-4-pyridinecarboxaldehyde]
levels of IL-6 expression ([1]; H9C2 cells (rat myocardium) pretreated about 40 minutes with 100 nM or more, then 1 mM H2O2, FIG. 1): decreased levels of IL-6 expression | duration of the decrease of IL-6 levels ([1]; H9C2 cells, 100 nM, after application of oxidative stress (1 mM H2O2), FIG. 2): at least 12 hours | solubility [2]: essentially insoluble | level of activated p38 [3]: did not effect the level of activated p38
